According to patent US9790218B2, “Small molecule activators of calcium-activated chloride channels and methods of use” (The Regents of the University of California, priority 2011, dated 2017):

Target: T1, TMEM16A (Homo sapiens, UniProt Q5XXA6, DEL476-501)
T1 construct: expressed in transfected cells
T1 sequence (Q5XXA6 with tags, fused parts or gaps isoform Q5XXA6-5 DEL539-564): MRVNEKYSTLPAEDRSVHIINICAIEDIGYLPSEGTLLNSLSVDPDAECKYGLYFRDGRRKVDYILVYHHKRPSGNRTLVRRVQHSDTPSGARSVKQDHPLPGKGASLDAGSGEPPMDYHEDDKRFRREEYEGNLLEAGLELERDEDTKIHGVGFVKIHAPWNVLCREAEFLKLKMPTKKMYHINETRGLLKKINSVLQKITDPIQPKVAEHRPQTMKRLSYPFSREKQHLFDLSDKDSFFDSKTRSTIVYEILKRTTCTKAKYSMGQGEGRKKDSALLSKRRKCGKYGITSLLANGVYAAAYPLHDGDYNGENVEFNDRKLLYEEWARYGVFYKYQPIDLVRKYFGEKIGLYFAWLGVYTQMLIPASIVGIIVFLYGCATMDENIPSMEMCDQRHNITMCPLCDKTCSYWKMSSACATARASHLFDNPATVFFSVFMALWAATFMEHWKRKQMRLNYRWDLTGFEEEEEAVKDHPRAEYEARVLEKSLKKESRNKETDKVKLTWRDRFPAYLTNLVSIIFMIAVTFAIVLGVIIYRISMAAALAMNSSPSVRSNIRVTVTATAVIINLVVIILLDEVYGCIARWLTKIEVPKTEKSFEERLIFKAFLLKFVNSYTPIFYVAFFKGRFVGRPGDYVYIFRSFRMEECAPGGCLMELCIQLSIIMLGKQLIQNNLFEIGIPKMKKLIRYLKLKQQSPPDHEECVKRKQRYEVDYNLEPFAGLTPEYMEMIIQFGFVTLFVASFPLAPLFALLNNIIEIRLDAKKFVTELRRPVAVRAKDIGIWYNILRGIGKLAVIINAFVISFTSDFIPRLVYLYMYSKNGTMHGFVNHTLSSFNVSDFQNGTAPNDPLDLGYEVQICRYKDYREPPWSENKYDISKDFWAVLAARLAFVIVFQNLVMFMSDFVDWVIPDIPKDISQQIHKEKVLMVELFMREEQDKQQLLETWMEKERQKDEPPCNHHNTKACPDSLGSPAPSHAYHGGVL
Assay: Whole-cell patch-clamp of TMEM16A-expressing FRT cells
Type: cell-based
Experimental: FIG. 4A-D. Patch-clamp analysis of Ca^2+ requirements for TMEM16A activation by Eact and Fact. FIG. 4A. Apical membrane current measured in TMEM16A-expressing FRT cells. ER calcium stores were depleted by CPA (50 μM, 30 min) and 0 CaCl2 in bath. ATP (100 μM), Fact (10 μM), Eact (10 μM) and T16Ainh-A01 (10 μM) were added as indicated. FIG. 4B and FIG. 4C. Whole-cell TMEM16A currents were recorded at a holding potential at 0 mV, and pulsing to voltages between ±80 mV (in steps of 20 mV) in the absence and presence of 3 μM Eact or 10 μM Fact. Free calcium concentration of pipette solutions were clamped at 0 μM, 0.07 μM, 0.15 μM, and 1 μM. Eact (3 μM) or Fact (10 μM) added as indicated. (right) Current/voltage (I/V) plots of mean currents at the middle of each voltage pulse. The Ca^2+ concentration is indicated to the right. FIG. 4D. TMEM16A inhibited by 10 μM T16Ainh-A01 after stimulation by Eact or Fact.
Whole-cell recordings were made at room temperature on TMEM16A-expressing FRT cells and human submandibular A253 cells. The bath solution contained (in mM): 140 NMDG-Cl, 1 CaCl2, 1 MgCl2, 10 glucose and 10 HEPES (pH 7.4). The pipette solution contained (in mM): 130 CsCl, 0.5 EGTA, 1 MgCl2, 1 Tris-ATP, and 10 HEPES (pH 7.2). Different concentrations of free calcium in pipette solution were obtained by replacing 0.5 mM EGTA with 5 mM EGTA, and using different amounts of CaCl2 in the pipette solution. Pipettes were pulled from borosilicate glass and had resistances of 3-5 MΩ after fire polishing. Seal resistances were between 3 and 10 GΩ. After establishing the whole-cell configuration, TMEM16A was activated by 100 μM ATP, TMEM16A activators or different concentrations of free calcium in the pipette solution. Whole-cell currents were elicited by applying hyperpolarizing and depolarizing voltage pulses from a holding potential of 0 mV to potentials between −100 mV and +100 mV in steps of 20 mV. Recordings were made at room temperature using an Axopatch-200B (Axon Instruments). Currents were digitized with a Digidata 1440A converter (Axon Instruments), filtered at […].
The Ca^2+ dependence of TMEM16A activation by Eact and Fact was investigated. […] Whole-cell currents were then recorded by patch-clamp at different cytoplasmic (pipette) [Ca^2+]. […] (FIG. 4B, bottom and right). […] Thus, Eact and Fact activate TMEM16A by different mechanisms: Eact as a largely Ca^2+-independent ‘activator’, and Fact as a ‘potentiator’ of Ca^2+ activation.

Row | SMILES | block of Cl^− currents produced by Eact or Fact (10 μM T16Ainh-A01) | maximum TMEM16A Cl^− current at high [Ca^2+] (3 μM Eact or 10 μM Fact) | whole-cell Cl^− current at submaximal Ca^2+ (compared to no compound, 10 μM Fact) | whole-cell TMEM16A Cl^− current at 0 Ca^2+ (pipette 0 Ca^2+, 3 μM Eact or 10 μM Fact)
1 | CCc1c(C)nc(SCC(=O)Nc2nc(-c3ccc(OC)cc3)cs2)[nH]c1=O [T16Ainh-A01, reference compound] | completely blocked |  |  | 
2 | O=C(Nc1ccc(Br)cc1)c1cccc(-n2cnnn2)c1 [Fact, N-(4-bromophenyl)-3-(1H-tetrazol-1-yl)benzamide] |  | not further increased | increased Cl^− current | did not product Cl^− current
